In patent US20080207705A1, “Heteroaryl-Imidazole Derivatives as Cannabinoid CB1 Receptor Antagonists” (Green Cross Corporation, priority 2007, published 2008) one finds IC50 data, which are given here for 32 compounds.

T1 sequence (P20272 whole entry): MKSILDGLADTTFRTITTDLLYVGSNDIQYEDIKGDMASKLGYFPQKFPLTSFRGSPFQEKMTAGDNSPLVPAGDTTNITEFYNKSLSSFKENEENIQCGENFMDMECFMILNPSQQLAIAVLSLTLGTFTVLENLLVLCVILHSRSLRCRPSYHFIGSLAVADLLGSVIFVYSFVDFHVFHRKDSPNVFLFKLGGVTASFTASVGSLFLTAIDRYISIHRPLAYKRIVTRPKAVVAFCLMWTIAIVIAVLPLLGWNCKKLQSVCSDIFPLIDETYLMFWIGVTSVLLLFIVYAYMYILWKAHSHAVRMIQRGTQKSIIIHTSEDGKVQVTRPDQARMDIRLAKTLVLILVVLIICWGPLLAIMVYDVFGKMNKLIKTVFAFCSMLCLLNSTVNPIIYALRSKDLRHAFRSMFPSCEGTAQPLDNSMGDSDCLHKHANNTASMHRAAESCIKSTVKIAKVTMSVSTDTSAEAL

One experiment has as its target T1, rat CB-1 receptor (Rattus norvegicus, UniProt P20272).
T1 construct: The tissue obtained from the brain of SD rats was homogenized; from tissue; host or cells: brain of SD rats (membrane pellet of homogenate)
Kind of experiment: rat CB-1 receptor binding protocol with [3H]CP-55940.
Conditions: not given
For `CCc1c(-c2nnc(C3(c4ccc(Cl)cc4)CC3)o2)nc(-c2ccc(Cl)cc2Cl)n1-c1ccc(Br)cc1` [Example 40, 2-(1-(4-Bromophenyl)-2-(2,4-dichlorophenyl)-5-ethyl-1H-imidazol-4-yl)-5-(1-(4-chlorophenyl)cyclopropyl)-1,3,4-oxadiazole], the IC50 was 0.00905 µM.

Compound `Cc1c(-c2nnc(C3(C(F)(F)F)CCC3)o2)nc(-c2ccccc2Cl)n1-c1ccc(Br)cc1` [Example 53, 2-(1-(4-Bromophenyl)-2-(2-chlorophenyl)-5-methyl-1H-imidazol-4-yl)-5-(1-(trifluoromethyl)cyclobutyl)-1,3,4-oxadiazole] showed an IC50 of 0.0114 µM.

Compound `CC(C)(C)c1nnc(-c2nc(-c3ccc(Cl)cc3Cl)n(-c3ccc(Cl)cc3)c2C2CC2)s1` [Example 113, 2-tert-Butyl-5-(1-(4-chlorophenyl)-5-cyclopropyl-2-(2,4-dichlorophenyl)-1H-imidazol-4-yl)-1,3,4-thiadiazole] returned an IC50 of 0.058 µM.

On to `CCc1c(-c2nnc(C3(c4ccc(Cl)cc4Cl)CC3)o2)nc(-c2ccc(Cl)cc2Cl)n1-c1ccc(Br)cc1` [Example 44, 2-(1-(4-Bromophenyl)-2-(2,4-dichlorophenyl)-5-ethyl-1H-imidazol-4-yl)-5-(1-(2,4-dichlorophenyl)cyclopropyl)-1,3,4-oxadiazole], for which the IC50 was 0.00805 µM.

Still in this experiment, the particulars now being: [3H]CP-55940, brain tissue of SD rats, 30 °C for 60 min; read-out: IC50.
As to `CCCc1c(-c2nnc(C3(c4ccc(Cl)cc4)CC3)o2)nc(-c2ccc(Cl)cc2Cl)n1-c1ccc(Cl)cc1` [Example 37, 2-(1-(4-Chlorophenyl)-2-(2,4-dichlorophenyl)-5-propyl-1H-imidazol-4-yl)-5-(1-(4-chlorophenyl)cyclopropyl)-1,3,4-oxadiazole], the IC50 amounted to 0.0151 µM.

`CCc1c(-c2nc(C(C)(C)C)co2)nc(-c2ccc(Cl)cc2Cl)n1-c1ccc(Cl)cc1` [Example 190, 4-tert-Butyl-2-(1-(4-chlorophenyl)-2-(2,4-dichlorophenyl)-5-ethyl-1H-imidazol-4-yl)oxazole]: the IC50 worked out at 0.119 µM.

Consider `CCCCC(C)c1nnc(-c2nc(-c3ccc(Cl)cc3Cl)n(-c3ccc(Cl)cc3)c2C)o1` (centres unmarked) [Example 6, 2-(1-(4-Chlorophenyl)-2-(2,4-dichlorophenyl)-5-methyl-1H-imidazol-4-yl)-5-(hexan-2-yl)-1,3,4-oxadiazole], for which the IC50 turned out to be 0.0129 µM.

As to `CC(C)(C)c1nnc(-c2nc(-c3ccc(Cl)cc3Cl)n(-c3ccc(Cl)cc3)c2C2CC2)o1` [Example 24, 2-tert-Butyl-5-(1-(4-chlorophenyl)-5-cyclopropyl-2-(2,4-dichlorophenyl)-1H-imidazol-4-yl)-1,3,4-oxadiazole], the IC50 was 0.0799 µM.

`CCc1c(-c2nnc(C3CCC3)o2)nc(-c2ccc(Cl)cc2Cl)n1-c1ccc(Br)cc1` [Example 23, 2-(1-(4-Bromophenyl)-2-(2,4-dichlorophenyl)-5-ethyl-1H-imidazol-4-yl)-5-cyclobutyl-1,3,4-oxadiazole]: the IC50 turned out to be 0.0241 µM.

Turning to `Cc1c(-c2nnc(C3CCCCC3)o2)nc(-c2ccc(Cl)cc2Cl)n1-c1ccc(Cl)cc1` [Example 2, 2-(1-(4-Chlorophenyl)-2-(2,4-dichlorophenyl)-5-methyl-1H-imidazol-4-yl)-5-cyclohexyl-1,3,4-oxadiazole], the IC50 is 0.115 µM.

Regarding `Clc1ccc(C2(c3nnc(-c4nc(-c5ccccc5Cl)n(-c5ccc(Br)cc5)c4Cn4cncn4)s3)CC2)cc1` [Example 171, 2-(5-((1H-1,2,4-Triazol-1-yl)methyl)-1-(4-bromophenyl)-2-(2-chlorophenyl)-1H-imidazol-4-yl)-5-(1-(4-chlorophenyl)cyclopropyl)-1,3,4-thiadiazole], the IC50 was 0.0018 µM.

In the case of `Cc1c(-c2ncc(C3CCCCC3)o2)nc(-c2ccc(Cl)cc2Cl)n1-c1ccc(Cl)cc1` [Example 180, 2-(1-(4-Chlorophenyl)-2-(2,4-dichlorophenyl)-5-methyl-1H-imidazol-4-yl)-5-cyclohexyloxazole], the IC50 was determined as 0.0786 µM.

As to `Cc1c(-c2nnc(C3(c4ccc(Cl)cc4)CC3)s2)nc(-c2ccc(Cl)cc2Cl)n1-c1ccc(Br)cc1` [Example 138, 2-(1-(4-Bromophenyl)-2-(2,4-dichlorophenyl)-5-methyl-1H-imidazol-4-yl)-5-(1-(4-chlorophenyl)cyclopropyl)-1,3,4-thiadiazole], the IC50 stood at 0.0185 µM.

As for `FC(F)(F)C1(c2nnc(-c3nc(-c4ccc(Cl)cc4Cl)n(-c4ccc(Br)cc4)c3Cn3cncn3)s2)CC1` [Example 165, 2-(5-((1H-1,2,4-Triazol-1-yl)methyl)-1-(4-bromophenyl)-2-(2,4-dichlorophenyl)-1H-imidazol-4-yl)-5-(1-(trifluoromethyl)cyclopropyl)-1,3,4-thiadiazole], the IC50 was determined as 0.00559 µM.

In the case of `Cc1c(-c2nc(C(C)(C)C)co2)nc(-c2ccc(Cl)cc2Cl)n1-c1ccc(Cl)cc1` [Example 189, 4-tert-Butyl-2-(1-(4-chlorophenyl)-2-(2,4-dichlorophenyl)-5-methyl-1H-imidazol-4-yl)oxazole], the IC50 turned out to be 0.0883 µM.

In the case of `Cc1c(-c2nnc(C3CCC3)o2)nc(-c2ccc(Cl)cc2Cl)n1-c1ccc(Cl)cc1` [Example 4, 2-(1-(4-Chlorophenyl)-2-(2,4-dichlorophenyl)-5-methyl-1H-imidazol-4-yl)-5-cyclobutyl-1,3,4-oxadiazole], the IC50 came out at 0.0387 µM.

For the compound `CCCc1c(-c2nnc(C(C)(C)C)o2)nc(-c2ccc(Cl)cc2Cl)n1-c1ccc(Br)cc1` [Example 29, 2-(1-(4-Bromophenyl)-2-(2,4-dichlorophenyl)-5-propyl-1H-imidazol-4-yl)-5-tert-butyl-1,3,4-oxadiazole], the IC50 was found to be 0.0715 µM.

With `Cc1c(-c2ncc(C(C)(C)C)o2)nc(-c2ccc(Cl)cc2Cl)n1-c1ccc(Br)cc1` [Example 187, 2-(1-(4-Bromophenyl)-2-(2,4-dichlorophenyl)-5-methyl-1H-imidazol-4-yl)-5-tert-butyloxazole], the IC50 is 0.0169 µM.

Take `CCc1c(-c2nc(C(C)(C)C)co2)nc(-c2ccc(Cl)cc2Cl)n1-c1ccc(Br)cc1` [Example 191, 2-(1-(4-Bromophenyl)-2-(2,4-dichlorophenyl)-5-ethyl-1H-imidazol-4-yl)-4-tert-butyloxazole]: the IC50 amounted to 0.03 µM.

Take `Cc1c(-c2nnc(C(C)c3ccccc3)s2)nc(-c2ccc(Cl)cc2Cl)n1-c1ccc(Cl)cc1` (centres unmarked) [Example 100, 2-(1-(4-Chlorophenyl)-2-(2,4-dichlorophenyl)-5-methyl-1H-imidazol-4-yl)-5-(1-phenylethyl)-1,3,4-thiadiazole]: the IC50 was determined as 0.0169 µM.

Consider `CCCc1c(-c2nnc(C3CCCCC3)o2)nc(-c2ccc(Cl)cc2Cl)n1-c1ccc(Br)cc1` [Example 30, 2-(1-(4-Bromophenyl)-2-(2,4-dichlorophenyl)-5-propyl-1H-imidazol-4-yl)-5-cyclohexyl-1,3,4-oxadiazole], for which the IC50 stood at 0.392 µM.

On to `CCC(CC)c1nnc(-c2nc(-c3ccc(Cl)cc3Cl)n(-c3ccc(Cl)cc3)c2C)s1` [Example 99, 2-(1-(4-Chlorophenyl)-2-(2,4-dichlorophenyl)-5-methyl-1H-imidazol-4-yl)-5-(pentan-3-yl)-1,3,4-thiadiazole], for which the half-maximal inhibitory concentration (IC50) was 0.0197 µM.

Take `CC(C)c1c(-c2nnc(C(C)(C)C)s2)nc(-c2ccc(Cl)cc2Cl)n1-c1ccc(Br)cc1` [Example 114, 2-(1-(4-Bromophenyl)-2-(2,4-dichlorophenyl)-5-isopropyl-1H-imidazo-4-yl)-5-tert-butyl-1,3,4-thiadiazole]: the IC50 worked out at 0.00649 µM.

Take `CC(C)(C)c1nnc(-c2nc(-c3ccc(Cl)cc3Cl)n(-c3ccc(Br)cc3)c2Cn2cncn2)o1` [Example 74, 2-(5-((1H-1,2,4-Triazol-1-yl)methyl)-1-(4-bromophenyl)-2-(2,4-dichlorophenyl)-1H-imidazol-4-yl)-5-tert-butyl-1,3,4-oxadiazole]: the IC50 came out at 0.00521 µM.

`CCCCC(C)c1nnc(-c2nc(-c3ccc(Cl)cc3Cl)n(-c3ccc(Cl)cc3)c2C)s1` (centres unmarked) [Example 95, 2-(1-(4-Chlorophenyl)-2-(2,4-dichlorophenyl)-5-methyl-1H-imidazol-4-yl)-5-(hexan-2-yl)-1,3,4-thiadiazole]: the IC50 came to 0.015 µM.

As to `Cc1c(-c2nnc(C3(C(F)(F)F)CC3)o2)nc(-c2ccccc2Cl)n1-c1ccc(Br)cc1` [Example 52, 2-(1-(4-Bromophenyl)-2-(2-chlorophenyl)-5-methyl-1H-imidazol-4-yl)-5-(1-(trifluoromethyl)cyclopropyl)-1,3,4-oxadiazole], the IC50 was determined as 0.0186 µM.

For the compound `Cc1c(-c2ncc(CC(C)C)o2)nc(-c2ccc(Cl)cc2Cl)n1-c1ccc(Cl)cc1` [Example 184, 2-(1-(4-Chlorophenyl)-2-(2,4-dichlorophenyl)-5-methyl-1H-imidazol-4-yl)-5-isobutyloxazole], the IC50 stood at 0.0131 µM.

Turning to `CCc1c(-c2nnc(C3(c4ccc(Cl)cc4Cl)CC3)s2)nc(-c2ccc(Cl)cc2Cl)n1-c1ccc(Br)cc1` [Example 134, 2-(1-(4-Bromophenyl)-2-(2,4-dichlorophenyl)-5-ethyl-1H-imidazol-4-yl)-5-(1-(2,4-dichlorophenyl)cyclopropyl)-1,3,4-thiadiazole], the half-maximal inhibitory concentration (IC50) was determined as 0.00657 µM.

As to `CCc1c(-c2nnc(C3(C(F)(F)F)CC3)o2)nc(-c2ccc(Cl)cc2Cl)n1-c1ccc(Br)cc1` [Example 49, 2-(1-(4-Bromophenyl)-2-(2,4-dichlorophenyl)-5-ethyl-1H-imidazol-4-yl)-5-(1-(trifluoromethyl)cyclopropyl)-1,3,4-oxadiazole], the IC50 came out at 0.0167 µM.

For the compound `CCc1c(-c2nnc(C(C)CC)o2)nc(-c2ccc(Cl)cc2Cl)n1-c1ccc(Cl)cc1` (centres unmarked) [Example 18, 2-sec-Butyl-5-(1-(4-chlorophenyl)-2-(2,4-dichlorophenyl)-5-ethyl-1H-imidazol-4-yl)-1,3,4-oxadiazole], the IC50 turned out to be 0.0179 µM.

In the case of `Cc1c(-c2ncc(C3CCCCC3)s2)nc(-c2ccc(Cl)cc2Cl)n1-c1ccc(Cl)cc1` [Example 193, 2-(1-(4-Chlorophenyl)-2-(2,4-dichlorophenyl)-5-methyl-1H-imidazol-4-yl)-5-cyclohexylthiazole], the IC50 amounted to 0.0745 µM.

Turning to `CCCc1c(-c2nnc(C3(c4ccccc4)CC3)s2)nc(-c2ccc(Cl)cc2Cl)n1-c1ccc(Br)cc1` [Example 121, 2-(1-(4-Bromophenyl)-2-(2,4-dichlorophenyl)-5-propyl-1H-imidazol-4-yl)-5-(1-phenylcyclopropyl)-1,3,4-thiadiazole], the IC50 amounted to 0.0132 µM.
